Experimental data as given in patent US20080051388A1, “Novel Compounds That Inhibit Factor Xa Activity” (Morphochem Aktiengesellschaft Fur Kombinatorische Chemie, priority 2004, published 2008).

Biological target: factor Xa (Homo sapiens, UniProt P00742)
Assay: Inhibitory action towards factor Xa activity (methods of WO0216312)
Assay type: biochemical
Details: read-out: IC50 value (factor Xa inhibition)
Protocol: Determinations of the inhibitory action towards factor Xa activity were carried out in accordance with the methods described in WO0216312.

Chain of factor Xa (P00742 235-488 limits assumed): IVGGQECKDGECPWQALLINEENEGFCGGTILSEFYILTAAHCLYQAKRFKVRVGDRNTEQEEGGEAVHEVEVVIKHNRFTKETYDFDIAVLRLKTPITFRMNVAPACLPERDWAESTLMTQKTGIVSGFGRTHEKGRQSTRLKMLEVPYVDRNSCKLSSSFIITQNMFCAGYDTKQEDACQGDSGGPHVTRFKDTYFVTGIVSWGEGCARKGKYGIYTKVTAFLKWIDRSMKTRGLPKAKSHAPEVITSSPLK
Chain of factor Xa (P00742 41-179 partner limits assumed): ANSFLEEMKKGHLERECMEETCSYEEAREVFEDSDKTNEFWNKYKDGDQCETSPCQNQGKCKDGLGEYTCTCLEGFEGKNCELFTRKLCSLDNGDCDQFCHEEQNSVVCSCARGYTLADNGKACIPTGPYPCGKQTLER

- IC50: 0.1 to 10 nM
SMILES: CN1CCN(C(=O)CNC(=O)C(Nc2cccc(C(=N)N)c2)c2ccccc2O[C@@H]2O[C@H](CO)[C@@H](O)[C@H](O)[C@H]2O)CC1 (single isomer, unassigned) [Example 1, 2-(3-Carbamimidoyl-phenylamino)-N-[2-(4-methyl-piperazin-1-yl)-2-oxo-ethyl]-2-[2-(3,4,5-trihydroxy-6-hydroxymethyl-tetrahydro-pyran-2-yloxy)-phenyl]-acetamide]
